{
  "source": "patent US11304926B2",
  "about": "“Application of transient receptor potential cation channel TRPV3 in developing drug for preventing or treating psoriasis” (CHINA PHARMACEUTICAL UNIVERSITY, priority 2019, dated 2022)",
  "key": {"[1]": {"test_system": "mouse psoriasis model induced by 5% IMQ", "experiment": "Histopathological examination (HE staining, epidermal thickness) of mouse psoriasis model under drug intervention", "format": "in vivo", "settings": "subcutaneous injection, 5% IMQ model", "description": "After sacrifice of the mice, skin tissues were collected, fixed with 10% (mass fraction) paraformaldehyde solution, embedded in paraffin, and then subjected to 3 μm slicing and HE staining. An Eclipse Ti inverted microscope (Nikon Corporation, Tokyo, Japan) was used to observe and take a photo at 400-times magnification, and NIS-element BR software (Nikon Corporation, Tokyo, Japan) was used to measure an epidermal thickness of the skin. Six fields of view were randomly selected for each section. […] It should be noted that measurement data was represented by mean±standard deviation (mean±SD), and was detected by One-Way ANOVA, wherein ** represented that P<0.01, which was relative to the vaseline group."}, "mTRPV3": {"molecular_target": "T1, mTRPV3 (Mus musculus, UniProt Q8K424)", "T1 construct": "expressed in transfected cells", "T1 sequence (Q8K424 1-791)": "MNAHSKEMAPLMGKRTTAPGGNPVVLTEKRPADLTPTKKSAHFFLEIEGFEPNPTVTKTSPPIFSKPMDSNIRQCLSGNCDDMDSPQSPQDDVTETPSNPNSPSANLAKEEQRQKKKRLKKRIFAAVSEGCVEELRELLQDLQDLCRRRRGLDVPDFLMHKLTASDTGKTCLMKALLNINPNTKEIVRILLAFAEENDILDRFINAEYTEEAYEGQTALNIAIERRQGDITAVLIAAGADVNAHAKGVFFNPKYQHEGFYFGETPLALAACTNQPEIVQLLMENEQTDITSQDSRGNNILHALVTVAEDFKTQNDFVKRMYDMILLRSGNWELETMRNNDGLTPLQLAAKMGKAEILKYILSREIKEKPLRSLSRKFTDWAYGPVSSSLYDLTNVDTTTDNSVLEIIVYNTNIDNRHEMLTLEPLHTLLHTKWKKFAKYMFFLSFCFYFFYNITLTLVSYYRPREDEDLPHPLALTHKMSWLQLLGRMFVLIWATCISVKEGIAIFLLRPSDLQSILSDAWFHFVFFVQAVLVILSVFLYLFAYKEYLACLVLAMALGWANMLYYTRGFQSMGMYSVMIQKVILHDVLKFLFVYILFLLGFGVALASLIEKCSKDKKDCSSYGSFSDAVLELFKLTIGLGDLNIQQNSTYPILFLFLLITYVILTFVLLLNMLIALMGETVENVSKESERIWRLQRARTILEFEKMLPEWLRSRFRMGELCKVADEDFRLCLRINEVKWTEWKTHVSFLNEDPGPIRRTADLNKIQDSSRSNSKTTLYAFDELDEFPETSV", "experiment": "Intracellular calcium fluorescence (Fluo-4, FLIPR) in HEK-293 cells stably transfecting mTRPV3, 2-APB induced", "format": "cell-based", "settings": "Scutellarein 10 μM, 2-APB 300 μM, mTRPV3-HEK-293", "experimental": "mTRPV3 plasmids were donated by Professor Jie Zheng from UC Davis. Transfection steps were as follows: HEK-293 cells with a confluence ranging from 70% to 80% and a good growth state were seeded into T-60 small dishes the day before transfection, each small dish contained 4×10^5 cells, and the cells were cultured without penicillin/streptomycin overnight at 37° C. in 5% CO2. 10 μL of plasmids (plasmid concentration was 1000 ng/μL) were diluted with 250 μl of DMEM (article number: 12800017, Gibco), and meanwhile, 10 μL of Lipofectamine 2000 (article number: 11668027, Gibco) was diluted into 250 μL of DMEM. […] Monoclone cells were selected by a limiting dilution method: the screened cells were digested and counted, and seeded into a 96-well plate in sequence at densities of 10^4 cells/well, 10^3 cells/well, 10^2 cells/well, 10 cells/well, and 1 cell/well. Under a fluorescence microscope, wells of separate cells with green fluorescence were labeled, and cells amplified from the wells were HEK-293 cells stably transfecting the mTRPV3. […] The cell plate was placed in a preheated FLIPR® ^TETRA (Molecular Devices, Sunnyvale, Calif., USA) at 30° C., and excited at a wavelength of 488 nm, and fluorescence signals were continuously recorded at a sampling frequency of 1 second at a wavelength range of 515 nm to 575 nm. […]"}},
  "note": "“Also recorded” adds a separate entry of the source.",
  "data": [
    {"smiles": "O=c1cc(-c2ccc(O)cc2)oc2cc(O)c(O)c(O)c12", "note": "[Scutellarein]", "values": [
      {"measurement": "epidermal thickness at lesion part", "setting": "[1]", "result": "significantly reduce"},
      {"measurement": "pathological changes of the skin induced by imiquimod", "setting": "[1]", "result": "could improve the above pathological changes"},
      {"measurement": "inhibition of increase of intracellular calcium concentration (calcium influx) induced by 2-APB", "setting": "mTRPV3", "result": "could inhibit increase of the intracellular calcium concentration; also recorded: obvious inhibitory effect"}
    ]}
  ]
}
